Data: paper PMC9382192, “Combined treatment with epigenetic agents enhances anti-tumor activity of MAGE-D4 peptide-specific T cells by upregulating the MAGE-D4 expression in glioma” (Frontiers in Oncology, 2022)

Tests used:
[1] = tested on: U87; experiment: LDH cytotoxicity assay, U87; assay type: cell-based, human; details: TSA-treated U87, E:T 50:1, 4 h; compared to T cell alone and NC-T cell groups
Method: The human glioma cell lines (U87-MG and U251) were obtained from the Cell Bank of Type Culture Collection of the Chinese Academy of Science (Shanghai, China). Decitabine (DAC, CAS No. A3656), valproic acid (VPA, CAS No. 99-66-1), and trichostatin A (TSA, CAS No. 58880-19-6) were purchased from Sigma-Aldrich Corporation (St. Louis, MO, USA). DAC and TSA were dissolved in DMSO to a concentration of 10 mM. Aliquots were stored at −80°C and diluted with media before being used. […]
The cytotoxic activity of MAGE-D4 peptide-specific CTLs to glioma cells was determined according to the instructions of the manufacturers by our published method ([31]). […] Four hours later, suspended cells were collected for CD107a flow cytometry, meanwhile, the supernatant was collected and analyzed with granzyme A and perforin ELISA kit (Cloud-Clone Corporation, Wuhan, China) at 450 nm, and the LDH kit (Promega, USA) at 490 nm. The percentage of specific lysis was calculated using the following formula: [(experimental release − spontaneous release)/(maximum release − spontaneous release)] × 100. […] Then, the cytotoxicity assay was measured and calculated as mentioned above.

[2] = tested on: HLA-A2; experiment: HLA-A2 expression in U87; assay type: cell-based, human; details: TSA 1 μM 24 h
Method: The human glioma cell lines (U87-MG and U251) were obtained from the Cell Bank of Type Culture Collection of the Chinese Academy of Science (Shanghai, China). […] A3656), valproic acid (VPA, CAS No. 99-66-1), and trichostatin A (TSA, CAS No. 58880-19-6) were purchased from Sigma-Aldrich Corporation (St. Louis, MO, USA). DAC and TSA were dissolved in DMSO to a concentration of 10 mM. Aliquots were stored at -80°C and diluted with media before being used. Drug treatments were divided into seven groups: (1) DAC group: cells were cultured in medium on the presence of 1 μM DAC for 120 h; (2) VPA group: cells were grown in medium containing 1 mM VPA for 120 h; (3) TSA group: cells were cultured in medium supplemented with 1 μM TSA for 24 h; (4) D + V group: cells were cultured with 1 μM DAC and 1 mM VPA for 120 h; (5) D + T group: cells were cultured with 1 μM DAC for 120 h, followed by 1 μM TSA for 24 h; (6) Control group: cells were cultured with 0.09% DMSO, which is the highest concentration of DMSO used in this study in consideration of the potential toxicity of DMSO to living cells. […] The cells were then harvested, washed with PBS buffer three times, and analyzed by a FACScan flow cytometer (BD Biosciences, Franklin Lakes, NJ, USA) using BD AccuriTM C6 Software (BD Biosciences).

**Q.** CLPPPNVIL [Peptide P8] was tested. Which “cytotoxicity of peptide-specific T cells (specific lysis, LDH)” value [1] did it give?
**A.** higher cytotoxicity

**Q.** Which HLA-A2 levels [2] does the source give for `CC(/C=C/C(=O)NO)=C\[C@@H](C)C(=O)c1ccc(N(C)C)cc1` [TSA, trichostatin A] here?
**A.** elevated HLA-A2 levels with statistical significance
